Assay results: PubChem BioAssay (NCI)
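Tested at 5 concentrations; 48 h exposure; 96-well plates; endpoints linearly interpolated, else capped at highest concentration. TGI: concentration producing complete growth inhibition.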

Experiments:
Assay in all cases: DTP human tumour cell line panel, 48 h
[1] = tested on: DU-145 prostate
[2] = tested on: HCT-116 colon
[3] = tested on: KM12 colon
[4] = tested on: MALME-3M melanoma
[5] = tested on: NCI-H460 lung
[6] = tested on: OVCAR-8 ovarian
[7] = tested on: SF-295 CNS
[8] = tested on: SK-OV-3 ovarian
[9] = tested on: SNB-19 CNS
[10] = tested on: T-47D breast

SMILES | TGI [1] [µM] | TGI [2] [µM] | TGI [3] [µM] | TGI [4] [µM] | TGI [5] [µM] | TGI [6] [µM] | TGI [7] [µM] | TGI [8] [µM] | TGI [9] [µM] | TGI [10] [µM]
CC(=O)/C=C(\O)c1[nH]c(C(=O)O)cc1C1CCN(Cc2ccccc2)C1=O (stereo unspecified) | 59.2 | 61.7 | > 100 | 46.3 | 32.3 | 36.4 | 48.7 | 57.7 | 83.5 | 49.8
Cc1cc2nc(N3C(=O)/C(=C/c4ccc(Cl)cc4)N=C3c3ccccc3)sc2cc1C | > 100 | 53.9 | 92.3 |  | > 100 | > 100 | > 100 | > 100 | > 100 | > 100
CCOC(=O)CSc1[nH]c(NC(=S)Nc2ccccc2)c(C(N)=O)c1C(N)=O | > 10 |  | > 10 | > 10 |  | > 10 | > 10 | > 10 |  | > 10
C=CCN(c1cc(OC)c2[nH]cc(C)c2c1[N+](=O)[O-])S(C)(=O)=O | > 100 | > 100 | > 100 | > 100 | > 100 | > 100 | > 100 | > 100 | > 100 | > 100
O=C(OCc1ccccc1)N1CCN(C(=O)OCc2ccccc2)CCN(C(=O)OCc2ccccc2)CCN(C(=O)OCc2ccccc2)CCN(C(=O)OCc2ccccc2)CC1 | > 100 | > 100 | > 100 | 61.2 | > 100 | > 100 | > 100 | > 100 | > 100 | > 100
COc1ccc(-c2cc(-c3cc(F)c(Cl)cc3Cl)on2)cc1OC | > 100 | > 100 | > 100 | > 100 | > 100 | > 100 | > 100 | > 100 | > 100 | > 100
O=C1C(NCCN2CCOCC2)=C(Cl)C(=O)c2ncccc21 | 2.17 | 1.14 | 2.61 | 1.9 | 1.71 | 1.9 | 2.77 | 2.73 | 2.75 | 3.14
COc1ccc(Oc2nc(C#CC(C)(C)O)nc(Oc3ccc(OC)cc3)n2)cc1 | 7.16 | > 100 | 29.2 | 34.6 | 37.3 | 13.7 | 31.2 | 36 | 41 | > 100
C#CCn1c(=O)c(Cl)cn(/C(=C/C(=O)OCC)C(=O)OCC)c1=O | 33 | 14.4 | > 70.5 | 8.5 | > 100 | 12.9 | > 66.7 | > 61.6 | > 66.7 | 5.27
CC(=O)N1c2ccccc2C(C)C1c1[nH]c2ccccc2c1C (stereo unspecified) | > 100 | 41.6 | 38.4 | > 100 | > 100 | 57.3 | 32 | 43.9 | > 100 | 91.5
Oc1ccc(O)c(CNc2ccccc2)c1 | 32.2 | 23.9 | 42.1 | 31.9 | 47 | 36.4 | 29.7 | 38.9 | 45.1 | 37.9
